In patent US7615366B2, “Bacillus amyloliquefaciens KTGB0202 and control method of plant pathogenic fungi using that” (KT & G Co., Ltd., priority 2003, dated 2009):

Experiments:
melon powdery mildew = test: Control effect against melon powdery mildew; conditions: 4000-fold-diluted concentration (control chemicals)
Excerpt: The bacteria culture was spread to melons with a powdery mildew incidence of about 10% under greenhouse conditions three times at one-week intervals, and after 7 days, the results were examined.
Trifumin® and Fenari® (Fenarimol) were used at a 4000-fold-diluted concentration, a recommended concentration for farmhouses.
The number of leaves with melon powdery mildew was counted before and after treatment so as to yield therapeutic effects.

cucumber powdery mildew = test: Control effect against cucumber powdery mildew; conditions: 4000-fold-diluted concentration (control chemical)
Excerpt: Also, Trifumin® (Triflumizole) was used at a 4000-fold-diluted concentration, a recommended concentration for farmhouses.

Compound	Number of infected leaves before treatment/number of infected leaves after treatment (melon powdery mildew)	Therapeutic effect (melon powdery mildew)	Control effect (%) (cucumber powdery mildew)	Incidence (%) (cucumber powdery mildew)
OC(c1ccc(Cl)cc1)(c1cncnc1)c1ccccc1Cl (stereo not drawn) [Fenari ® (Fenarimol), Fenarimol]	9/6	33.4		
CCCOC/C(=N\c1ccc(Cl)cc1C(F)(F)F)n1ccnc1 [Trifumin ® (Triflumizole), Triflumizole]	10/0	100	96.59	3.41
